Experiment [1] relates to LPS-induced TNFα release. The experiment is described as follows: LPS-induced TNFα acute inflammation mouse model. In kind it is in vivo. The conditions noted are these: oral; for ED50: Mus musculus, 1 hour before LPS i.p., Balb/c mice, read-out: ED50, inhibition of LPS-induced serum TNFα. On the procedure:
(§1) For both the LPS-induced TNFα as well as the anti-CD3 induced IL-2 model, female Balb/c mice of 8–12 week old were used. Mice were treated orally with 0.2 ml compound or vehicle (water/mannitol (5%) with 5% DMSO/5% chremophore for the LPS model or with 0.5% gelatine for the anti-CD3 model). One hour after oral treatment animals were challenged i.p. with 0.2 ml of either 20 μg/mouse LPS (Sigma, E. coli serotype 055:B5) or 5 µg/mouse hamster anti-CD3 monoclonal (BD Biosciences Pharmingen, art. nr. 553057, clone 145-2C11). Ninety minutes after LPS injection or 3 hours after anti-CD3 challenge, blood samples were collected and serum levels of TNFα or IL-2 were determined via specific ELISAs (BD Biosciences Pharmingen, San Diego, CA, USA). In the experiment that included treatment with RU486 to block GR, mice were dosed subcutaneously with 50 mg/kg RU486 30 minutes before the oral compound dosing. ED50 and % efficacy (maximal percentage inhibition of TNFα or IL-2 release) are determined using a 3 parameter sigmoidal curve calculation. Statistical analysis of the results was performed using an one-way ANOVA (log) test.

In experiment [2] the test system is anti-CD3-induced IL-2 release. The experiment is described as follows: anti-CD3-induced IL-2 mouse model. The format is in vivo. The following applies: oral; for ED50: Mus musculus, 1 hour before anti-CD3 i.p., Balb/c mice, read-out: ED50, reduction of anti-CD3-induced IL-2 serum levels; for efficacy, inhibition of anti-CD3-induced IL-2: relative to 10 mg/kg A420983 (100%). How it is done:
as §1

For experiment [3], the system named is THP-1 cells. Briefly: THP-1 repression of TNFα/IFNγ-induced MCP-1, IL-6, IL-8 release. The format is cell-based, human. The following applies: for IC50: Homo sapiens, THP-1, TNFα (60 ng/ml)/IFNγ (40 ng/ml); for Max. eff., IL-6 repression / Max. eff., IL-8 repression / Max. eff., MCP-1 repression: THP-1, I/T, prednisolone = 100%. On the procedure:
After 6 hours total RNA was isolated and further processed for microarray hybridization as described for the HepG2 cells. The data from all microarray experiments have been deposited in the NCBI Gene Expression Omnibus (GEO) under accession number (identifier will be included in proof). […] Expression of FKBP51, MCP-1, IL-6 and IL-8 protein was measured by specific […]; #A[…] [MCP-1], #A[…] [IL-6] and #A[…] [IL-8]) according to the manufacturer manual. […] Expression of FKBP51, DUSP1 and GILZ was measured by Q-PCR according to the same procedure as described for the HepG2 cells. In this case the following primer-pairs were used: for GAPDH: [NT] and [NT]; for FKBP51: [NT] and [NT]; for DUSP1: [NT] and [NT]; for GILZ: [NT] and [NT]. For the evaluation of protein expression, cells were incubated overnight with a whole dose range of compounds. Supernatants were collected to determine cytokine levels and cell lysates were generated by repeated freeze-thaw cycles to measure expression of FKBP51 protein. Expression of FKBP51, MCP-1, IL-6 and IL-8 was measured by specific […]; #A[…] [MCP-1], #A[…] [IL-6] and #A[…] [IL-8]) according to the manufacturer manual. […] Samples were incubated for 60 min at 23 C. […] Plates were measured using an EnVision-Alpha Reader.

Experiment [4] relates to primary human whole blood cells. The experiment is described as follows: Human whole blood PMA/anti-CD28-induced cytokine release. In kind it is cell-based. The conditions noted are these: for IC50: read-out: IC50, PMA/anti-CD28-induced IL-5 release. The source says:
Hereafter, supernatant was carefully collected and tested at the most optimal dilution (predetermined by a titration study on control samples) in a human TNFα-specific ELISA (for the LPS stimulated samples) or in a human IL-5-specific or human G-CSF-specific ELISA (for the PMA/anti-CD28 stimulated samples) (Duoset, R&D systems USA).

Where [5] appears, read: human whole blood, P/28, prednisolone = 100%.

Data on 2 molecules can be found in PMC3495945, “Org 214007-0: A Novel Non-Steroidal Selective Glucocorticoid Receptor Modulator with Full Anti-Inflammatory Properties and Improved Therapeutic Index” (PLoS ONE, 2012).

Each structure is given as a SMILES string. Like-named read-outs stand apart in the source and are kept apart here.

For `C[C@]12C=CC(=O)C=C1CC[C@@H]1[C@@H]2[C@@H](O)C[C@@]2(C)[C@H]1CC[C@]2(O)C(=O)CO` [prednisolone, reference compound], the ED50 (as a rule, the dose that gives a 50% effect, or the effect in half of the subjects) in experiment [1] is 1 mg/kg; in experiment [2] it was ~10 mg/kg. For the same molecule, in experiment [2], the “efficacy, inhibition of anti-CD3-induced IL-2” value is 75%. The IC50 in experiment [3] (read-out: IC50, IL-6 release) stood at 34.1 nM; in experiment [3] (read-out: IC50, IL-8 release) it was 36.9 nM; in experiment [3] (read-out: IC50, MCP-1 release), 69.9 nM; in experiment [4] (Homo sapiens, Whole blood cell, 24 h), 6.76 nM. The “Max. eff., IL-6 repression” value in experiment [3] turned out to be 100%. Further, the “Max. eff., IL-8 repression” value in experiment [3] turned out to be 100%. Moreover, the “Max. eff., MCP-1 repression” value in experiment [3] came out at 100%. The “Max. eff., IL-5 repression” value in experiment [4] (setting [5]) is given as 100%.
Take `Cc1nnsc1C(=O)N[C@H]1CCN2c3ccc(C#N)cc3[C@@H](C)c3ccccc3[C@@H]2C1` [Org 214007-0]: in experiment [1], the ED50 came to 0.5 mg/kg and the “maximal efficacy, inhibition of LPS-induced TNFα release” value stood at 90%. In experiment [2], the ED50 was ~0.3 mg/kg and the “efficacy, inhibition of anti-CD3-induced IL-2” value is 75%. The IC50 in experiment [3] (read-out: IC50, IL-6 release) amounted to 9.3 nM. For the same molecule, in experiment [3] (read-out: IC50, IL-8 release), the IC50 was found to be 11 nM. Besides, the IC50 in experiment [3] (read-out: IC50, MCP-1 release) came to 23.5 nM. Moreover, in experiment [3], the “Max. eff., IL-6 repression” value is reported as 78 (±9) %; the “Max. eff., IL-8 repression” value is reported as 74 (±10) %; the “Max. eff., MCP-1 repression” value is on record as 44 (±8) %. Also, the EC50 in experiment [4] (Whole blood cell, human whole blood, 24 hours, read-out: EC50, enhancement of PMA/anti-CD28-induced G-CSF release) was 186 nM. Moreover, the IC50 in experiment [4] (Whole blood cell, human whole blood, 24 hours) is 14.4 nM. In addition, in experiment [4] (setting [5]), the “Max. eff., G-CSF induction” value is 39 (±7.8) % and the “Max. eff., IL-5 repression” value is recorded as 64 (±11) %.
